According to ChEMBL document CHEMBL5126659, “Antiasthmatic Compounds Targeting β2-Adrenergic Receptor from Perilla frutescens Improved Lung Inflammation by Inhibiting the NF-κB Signaling Pathway” (J Nat Prod, 2022):
Active and inactive are the calls of the source.

What was measured:
Format in all cases: functional, organism-based
Rattus norvegicus [1] = assay: Anti-asthmatic activity against ovalbumin-induced asthmatic Sprague-Dawley rat model assessed as reduction in total IgE level in serum at 4.5 to 18 mg/kg, po for 7 days by ELISA; details: dose 4.5-18 mg/kg, time 7.0 day
Rattus norvegicus [2] = assay: Anti-asthmatic activity against ovalbumin-induced asthmatic Sprague-Dawley rat model assessed as reduction in OVA specific IgE level in serum at 4.5 to 18 mg/kg, po for 7 days by ELISA; details: dose 4.5-18 mg/kg, time 7.0 day
Rattus norvegicus [3] = assay: Anti-asthmatic activity against ovalbumin-induced asthmatic Sprague-Dawley rat model assessed as reduction in total IgE level in BALF at 4.5 to 18 mg/kg, po for 7 days by ELISA; details: dose 4.5-18 mg/kg, time 7.0 day
Rattus norvegicus [4] = assay: Anti-asthmatic activity against ovalbumin-induced asthmatic Sprague-Dawley rat model assessed as reduction in OVA specific IgE level in BALF at 4.5 to 18 mg/kg, po for 7 days by ELISA; details: dose 4.5-18 mg/kg, time 7.0 day
Rattus norvegicus [5] = assay: Anti-asthmatic activity against ovalbumin-induced asthmatic Sprague-Dawley rat model assessed as reduction in OVA specific IgE level in serum at 4.5 to 9 mg/kg, po for 7 days by ELISA; details: dose 4.5-9 mg/kg, time 7.0 day, DDE = dose-dependent effect
Rattus norvegicus [6] = assay: Anti-asthmatic activity against ovalbumin-induced asthmatic Sprague-Dawley rat model assessed as reduction in OVA specific IgE level in BALF at 4.5 to 9 mg/kg, po for 7 days by ELISA; details: dose 4.5-9 mg/kg, time 7.0 day, DDE = dose-dependent effect
Rattus norvegicus [7] = assay: Anti-asthmatic activity against ovalbumin-induced asthmatic Sprague-Dawley rat model assessed as reduction in eotaxin level in BALF at 4.5 to 18 mg/kg, po for 7 days by ELISA; details: dose 4.5-18 mg/kg, time 7.0 day
Rattus norvegicus [8] = assay: Anti-asthmatic activity against ovalbumin-induced asthmatic Sprague-Dawley rat model assessed as reduction in IL-4 cytokine level in BALF at 4.5 to 18 mg/kg, po for 7 days by ELISA; details: dose 4.5-18 mg/kg, time 7.0 day
Rattus norvegicus [9] = assay: Anti-asthmatic activity against ovalbumin-induced asthmatic Sprague-Dawley rat model assessed as reduction in IL-5 cytokine level in BALF at 4.5 to 18 mg/kg, po for 7 days by ELISA; details: dose 4.5-18 mg/kg, time 7.0 day
Rattus norvegicus [10] = assay: Anti-asthmatic activity against ovalbumin-induced asthmatic Sprague-Dawley rat model assessed as reduction in IL-13 cytokine level in BALF at 4.5 to 18 mg/kg, po for 7 days by ELISA; details: dose 4.5-18 mg/kg, time 7.0 day
Rattus norvegicus [11] = assay: Anti-asthmatic activity against ovalbumin-induced asthmatic Sprague-Dawley rat model assessed as reduction in inflammatory cell infiltration in lungs at 4.5 to 18 mg/kg, po for 7 days by H and E staining based microscopic analysis; details: dose 4.5-18 mg/kg, time 7.0 day
Rattus norvegicus [12] = assay: Anti-asthmatic activity against ovalbumin-induced asthmatic Sprague-Dawley rat model assessed as reduction in airway epithelial thickening in lungs at 4.5 to 18 mg/kg, po for 7 days by H and E staining based microscopic analysis; details: dose 4.5-18 mg/kg, time 7.0 day
Rattus norvegicus [13] = assay: Anti-asthmatic activity against ovalbumin-induced asthmatic Sprague-Dawley rat model assessed as reduction in NFkappaB protein expression in lungs at 4.5 to 18 mg/kg, po for 7 days by immunohistochemistry analysis; details: dose 4.5-18 mg/kg, time 7.0 day
Rattus norvegicus [14] = assay: Anti-asthmatic activity against ovalbumin-induced asthmatic Sprague-Dawley rat model assessed as reduction in NFkappaB protein expression in lungs at 4.5 to 18 mg/kg, po for 7 days by western blot analysis; details: dose 4.5-18 mg/kg, time 7.0 day
Rattus norvegicus [15] = assay: Anti-asthmatic activity against ovalbumin-induced asthmatic Sprague-Dawley rat model assessed as reduction in AMCase mRNA expression in lungs at 4.5 to 18 mg/kg, po for 7 days by qRT-PCR analysis; details: dose 4.5-18 mg/kg, time 7.0 day
Rattus norvegicus [16] = assay: Anti-asthmatic activity against ovalbumin-induced asthmatic Sprague-Dawley rat model assessed as reduction in CCL11 mRNA expression in lungs at 4.5 to 18 mg/kg, po for 7 days by qRT-PCR analysis; details: dose 4.5-18 mg/kg, time 7.0 day
Rattus norvegicus [17] = assay: Anti-asthmatic activity against ovalbumin-induced asthmatic Sprague-Dawley rat model assessed as reduction in CCR3 mRNA expression in lungs at 4.5 to 18 mg/kg, po for 7 days by qRT-PCR analysis; details: dose 4.5-18 mg/kg, time 7.0 day
Rattus norvegicus [18] = assay: Anti-asthmatic activity against ovalbumin-induced asthmatic Sprague-Dawley rat model assessed as reduction in YM2 mRNA expression in lungs at 4.5 to 18 mg/kg, po for 7 days by qRT-PCR analysis; details: dose 4.5-18 mg/kg, time 7.0 day
Rattus norvegicus [19] = assay: Anti-asthmatic activity against ovalbumin-induced asthmatic Sprague-Dawley rat model assessed as reduction in E-selectin mRNA expression in lungs at 4.5 to 18 mg/kg, po for 7 days by qRT-PCR analysis; details: dose 4.5-18 mg/kg, time 7.0 day

Measured: Activity

O=C(/C=C/c1ccc(O)c(O)c1)O[C@H](Cc1ccc(O)c(O)c1)C(=O)O
active: Rattus norvegicus [1] | Rattus norvegicus [2] | Rattus norvegicus [3] | Rattus norvegicus [4] | Rattus norvegicus [5] Dde | Rattus norvegicus [6] Dde | Rattus norvegicus [7] | Rattus norvegicus [8] | Rattus norvegicus [9] | Rattus norvegicus [10] | Rattus norvegicus [11] | Rattus norvegicus [12] | Rattus norvegicus [13] | Rattus norvegicus [14] | Rattus norvegicus [15] | Rattus norvegicus [16] | Rattus norvegicus [17] | Rattus norvegicus [18] | Rattus norvegicus [19]
